The target in one series is IN (Human immunodeficiency virus type 1 group M subtype B, UniProt P04585). The conditions noted are these: background section; read-out: IC50 inhibition of IN; cited from earlier work.
For series [1], the system named is HIV-1-derived vectors pseudotyped with the VSV-G envelope. Kind of series: microbe, parasite or virus in culture. The conditions noted are these: Human immunodeficiency virus 1, HEK-293T, read-out: EC50 inhibition of lentiviral transduction. In kind it is cell-based.
A further series deals with SIV (MAC251). In words: inhibition of virus-induced cytopathicity in MT-4 cells, SIV (MAC251). In kind it is cell-based, Simian immunodeficiency virus. To be noted: for EC50: Simian immunodeficiency virus, MT4, 120 h, read-out: EC50 SIV MAC251. For orientation: Protection from cytopathic effect is a common read-out in antiviral testing.
The test system of a further series is HIV-2 (ROD). In words: inhibition of virus-induced cytopathicity in MT-4 cells, HIV-2 (ROD). In kind it is cell-based. To be noted: for EC50: Human immunodeficiency virus 2, MT4, 120 h, read-out: EC50 HIV-2 ROD.
In the next series the test system is HIV-1 L1. In words: inhibition of virus-induced cytopathicity in MT-4 cells, HIV-1 clinical isolate L1. In kind it is cell-based. To be noted: Human immunodeficiency virus 1, MT4, 120 h, read-out: EC50 HIV-1 L1.
A further series relates to HIV-1(IIIB). Kind of series: inhibition of virus-induced cytopathicity in MT-4 cells, HIV-1 (IIIB). To be noted: for EC50: Human immunodeficiency virus 1, IIIB, MT4, 120 h, MT-4 cells, viral cytopathic effect, 5 days post-infection; for activity against the replication of HIV-1(IIIB): in words. In kind it is cell-based.
A further series deals with HIV-2 (EHO). In words: inhibition of virus-induced cytopathicity in MT-4 cells, HIV-2 (EHO). The conditions noted are these: for EC50: Human immunodeficiency virus 2, MT4, 120 h, read-out: EC50 HIV-2 EHO. In kind it is cell-based.
In series [2] the target is T1, recombinant His-tagged HIV-1 integrase (Human immunodeficiency virus type 1 group M subtype B, UniProt P04585). Kind of series: HIV-1 integrase 3′-processing assay, oligonucleotide-based. The conditions noted are these: for inhibition of the 3-processing reaction: in words.
Method: (§1) Reactions were started by the addition of the enzyme. Inhibitors were incubated shortly with the reaction components before the addition of integrase. Reactions were allowed to proceed at 37° C. for 7 minutes and stopped by the addition of formamide loading buffer (95% formamide, 30 mM ethylenediamine tetraacetic acid, 0.1% xylene cyanol, 0.1% bromophenol blue, 0.1% sodium dilaurylsulfate SDS). In the overall integration assay, this reaction was allowed to proceed for 60 minutes before the addition of a formamide dye.
Series [3] addresses T1, recombinant His-tagged HIV-1 integrase. Kind of series: HIV-1 integrase overall integration assay, oligonucleotide-based. The conditions noted are these: for inhibition of the overall integration reaction: in words.
Method: as §1
A short description of series [4]: cytotoxicity, viability of mock-infected cells. In kind it is cell-based. The conditions noted are these: human, viability of mock-infected MT-4 cells. The method, then:
Cytotoxicity of these compounds was determined in parallel by measuring the viability of mock-infected MT-4 or C8166 cells 5 days post-infection. The antiviral activity and cytotoxicity data, including average values and standard deviations for at least two separate experiments, are depicted in Table 2, wherein: CC50 represents the 50% cytotoxic concentration, i.e. the concentration that reduces by 50% the viability of MT-4 cells.

Series [5] concerns the target T2, Recombinant HIV-1 RT (HXB2) (Human immunodeficiency virus type 1 group M subtype B, UniProt P04585).
T2 construct: Recombinant HIV-1 RT (HXB2) was obtained as described by Jonckheere et al; made in house
Kind of series: inhibition of HIV-1 reverse transcriptase enzymatic activity. In kind it is biochemical. From the text: Poly(rC).oligo(dG) and poly (rA).oligo(dT) were used as template-primers, and 8-[^3H]-dGTP and [^3H]-dTTP were used as radiolabelled substrates.

Series [6] deals with T1, recombinant His-tagged HIV-1 integrase. In words: HIV-1 integrase strand transfer assay, oligonucleotide-based.
Another series deals with HIV-1 L2. In kind it is cell-based.
The test system of the next series is HIV-1 L6. In kind it is cell-based. To be noted: L6 versus wild type strain L1.
The next series relates to HIV-1 L4. In kind it is cell-based.
[7] abbreviates: MT-4 cells, viral cytopathic effect, 5 days post-infection.
The mark [8] stands for this setting: IC50 Poly(A).oligo(dT), template-primer poly(A).oligo(dT).
Where [9] appears, read: IC50 poly(C).oligo(dG), template-primer poly(C).oligo(dG).

Like-named read-outs stand apart in the source and are kept apart here.

By IC50 is commonly meant the midpoint of a concentration-inhibition curve. Consider `[N-]=[N+]=Nc1cn([C@H]2C[C@H](N=[N+]=[N-])[C@@H](COP(=O)(O)O)O2)c(=O)[nH]c1=O` [5-N3-AZUMP, 3′,5-diazido-2′,3′-dideoxyuridine 5′-monophosphate], for which the IC50 at IN was 150 µM.
By EC50 is commonly meant the concentration needed to bring the measured effect to its halfway point. For `Cc1cn([C@H]2C[C@H](N=[N+]=[N-])[C@@H](CO)O2)c(=O)[nH]c1=O` [AZT, reference compound], the EC50 in [1] stood at 0.049 µM.
In general, CC50 refers to the concentration giving 50% cytotoxicity. Take `Oc1nc(O)c2c(n1)Oc1nc(O)nc(O)c1C2c1ccc(I)cc1` [A]: the EC50 with SIV (MAC251) (setting [7]), in the series with HIV-2 (ROD) (setting [7]), with HIV-1 L1 (setting [7]), in the series on HIV-1(IIIB) and in the series on HIV-2 (EHO) (setting [7]) was above 276 µM each time. Further, the IC50 in series [2] and in series [3] was above 207 µM throughout. In series [4], this molecule registered a 50% cytotoxic concentration (CC50) at 5 days above 276 µM.
Regarding `Clc1nc(Cl)c2c(n1)Oc1nc(Cl)nc(Cl)c1C2c1ccccc1` [B], the EC50 with SIV (MAC251) (setting [7]), in the series with HIV-2 (ROD) (setting [7]), in the series with HIV-1 L1 (setting [7]), in the series with HIV-1(IIIB) and in the series with HIV-2 (EHO) (setting [7]) was above 17.5 µM each time. In addition, the figures for the IC50 in [2] and in series [3] were 74 ± 38.5 µM and 25 ± 4.5 µM, respectively. This molecule also came in with a CC50 at 5 days in series [4] of 17.5 µM.
As to `Oc1nc(O)c2c(n1)Oc1nc(O)nc(O)c1C2c1ccccc1` [C], the half-inhibitory concentration (IC50) came to 33.1 ± 15.1 µM in [5] (setting [8]); 15.1 ± 5.9 µM in series [5] (setting [9]); 782 ± 242 µM in series [6]; 22.4 ± 6.4 µM in series [2]; 34.6 ± 11.3 µM in [3]. Further, the EC50 in the series with SIV (MAC251) is 194 µM; in the series with HIV-2 (ROD) it was above 383 µM; in the series with HIV-1 L1 it was 116 ± 30 µM; in the series with HIV-1(IIIB), 170 ± 45 µM; in the series with HIV-2 (EHO), 169 ± 27 µM. In addition, the “activity against the replication of HIV-1(IIIB)” value (“activity … of HIV-1(IIIB)” below) in the series on HIV-1(IIIB) is listed as “active”. Also, the “inhibition of the 3-processing reaction” value in series [2] is on record as “inhibited”. Also, the “inhibition of the overall integration reaction” value in series [3] is given as “inhibited”. In addition, the CC50 at 5 days in series [4] is above 383 µM.
With `COc1nc(O)nc2c1C(c1ccc([N+](=O)[O-])cc1)c1c(OC)nc(O)nc1O2` [D], the EC50 with SIV (MAC251) (setting [7]), in the series with HIV-2 (ROD) (setting [7]), with HIV-1 L1 (setting [7]), in the series on HIV-1(IIIB) and in the series on HIV-2 (EHO) (setting [7]) was above 313 µM in each case. Moreover, the IC50 in [2] and in series [3] was above 250 µM each time. Moreover, the CC50 at 5 days in series [4] is above 313 µM.
Take `Oc1nc(O)c2c(n1)Oc1nc(O)nc(O)c1C2c1ccc(Br)cc1` [E]: the IC50 in series [5] (setting [8]) is above 494 µM; in [5] (setting [9]), above 494 µM; in series [6] it was above 1240 µM; in [2] it was 208 ± 82.2 µM; in [3] it was 298 ± 7.7 µM. Besides, the half-maximal effective concentration (EC50) is above 309 µM with SIV (MAC251); above 309 µM in the series with HIV-2 (ROD); above 309 µM in the series on HIV-1 L1; 273 ± 38 µM with HIV-1(IIIB); above 309 µM in the series with HIV-2 (EHO). Further, the “activity … of HIV-1(IIIB)” value with HIV-1(IIIB) is “active”. Moreover, the “inhibition of the 3-processing reaction” value in series [2] is “inhibited”. The “inhibition of the overall integration reaction” value in series [3] is “inhibited”. The CC50 at 5 days in [4] is above 309 µM.
Turning to `Oc1nc(O)c2c(n1)Oc1nc(O)nc(O)c1C2c1ccc(Cl)cc1` [F], the EC50 in the series with SIV (MAC251) (setting [7]), in the series on HIV-2 (ROD) (setting [7]), in the series on HIV-1 L1 (setting [7]), in the series with HIV-1(IIIB) and in the series on HIV-2 (EHO) (setting [7]) was above 347 µM in each case. Also, the IC50 was found to be 144 ± 81.3 µM in series [2] and 97.1 ± 93.8 µM in series [3]. This molecule had a CC50 at 5 days in series [4] above 347 µM.
Consider `Oc1nc(S)nc2c1C(c1ccc(Cl)cc1)c1c(O)nc(S)nc1O2` [G], for which the IC50 in series [5] (setting [8]) was 35.2 ± 0.4 µM; in series [5] (setting [9]), 25.8 ± 15.9 µM; in series [6], 201 ± 120 µM; in [2], 0.9 ± 0.5 µM; in [3] it was 1 ± 0.4 µM. Further, the EC50 was 100 µM in the series on SIV (MAC251); above 137 µM in the series on HIV-2 (ROD); 101 ± 32 µM in the series on HIV-1 L1; 56.8 ± 30 µM with HIV-1(IIIB); above 137 µM in the series on HIV-2 (EHO); 95.6 ± 6.5 µM in the series on HIV-1 L2 (Human immunodeficiency virus 1). Moreover, in the series on HIV-1 L4 (Human immunodeficiency virus 1), the EC50 stood at 163 ± 3.7 µM. For the same molecule, in the series on HIV-1(IIIB), the “activity … of HIV-1(IIIB)” value is “active”. Also, the “fold increase in EC50” value turned out to be 0.9 with HIV-1 L2 (L2 versus wild type strain L1), 1.8 with HIV-1 L6 and 1.6 in the series with HIV-1 L4 (L4 versus wild type strain L1). Also, the “inhibition of the 3-processing reaction” value in series [2] was “inhibited”. Moreover, the “inhibition of the overall integration reaction” value in series [3] was “inhibited”. In [4], this molecule showed a CC50 at 5 days of 137 µM.
`Cc1ccnc2c1NC(=O)c1cccnc1N2C1CC1` [nevirapine, reference compound]: the EC50 is above 97.6 µM in the series with SIV (MAC251) (setting [7]); above 97.6 µM in the series with HIV-2 (ROD) (setting [7]); 0.06 ± 0.01 µM in the series on HIV-1 L1 (setting [7]); 0.04 µM in the series on HIV-1(IIIB); above 97.6 µM in the series on HIV-2 (EHO) (setting [7]). The “activity against the replication of SIV (MAC251)” value in the series with SIV (MAC251) (at 98 μM in MT-4 cells) was “inactive”. The “activity against the replication of HIV-2 (ROD)” value with HIV-2 (ROD) (at 98 μM in MT-4 cells) was “inactive”. In the series on HIV-2 (EHO) (at 98 μM in MT-4 cells), the “activity against the replication of HIV-2 (EHO)” value is “inactive”. The same molecule gave a CC50 at 5 days in series [4] above 97.6 µM.
As to Dextran sulfate [reference compound], the IC50 in series [5] (template-primer poly(A).oligo(dT), read-out: IC50 Poly(A).oligo(dT)) worked out at 22 ± 8.8 µM; in [5] (template-primer poly(C).oligo(dG), read-out: IC50 poly(C).oligo(dG)), 7.3 ± 3.2 µM.
